Tested on: HeLa cells
Assay: alamarBlue cell growth assay, candidate KIF14 modulators in HeLa cells
Type: cell-based, human
Details: 72 hours; for IC50: Homo sapiens, HeLa, compounds 1 and 2: submaximal inhibition
Protocol: alamarBlue™ Assay for Cell Growth: The alamarBlue™ assay is a measure of cellular respiration and is used as a measure of live cell number. The internal environment of the proliferating cell is more reduced than that of non-proliferating cells. Specifically, the ratios of NADPH/NADP, FADH/FAD, FMNH/FMN, and NADH/NAF increase during proliferation. alamarBlue™ can be reduced by these metabolic intermediates and, therefore, can be used to monitor cell proliferation.
HeLa cells were plated at a density of 2000/cells per well in 10% DMEM in a 96-well plate (Costar, Cat. No. 3606) 20 hours prior to treatment with a KIF14 inhibitory compound in a series of dilutions (20 microliters of 11-fold concentrated solution of the compound added to 200 microliters of media). The cells were incubated at 37° C. for 72 hours prior to replacement of 100 microliters per well of the media with 10% (vol/vol) alamarBlue™ reagent. After incubation for 2 hours at 37° C., the plates were read on a spectrofluorimeter SpectroMax Gemini (excitation 544 nm, emission 590 nm). The background value (averaged from wells with no cells) was subtracted from each reading.

SMILES	IC50 [nM]	Growth Inhibition in HeLa Cells ([Compound] 19.5 nm) [%]	Growth Inhibition in HeLa Cells ([Compound] 39.1 nm) [%]	Growth Inhibition in HeLa Cells ([Compound] 78.1 nm) [%]	Growth Inhibition in HeLa Cells ([Compound] 156.2 nm) [%]	Growth Inhibition in HeLa Cells ([Compound] 312.5 nm) [%]	Growth Inhibition in HeLa Cells ([Compound] 625 nm) [%]	Growth Inhibition in HeLa Cells ([Compound] 1250 nm) [%]	Growth Inhibition in HeLa Cells ([Compound] 2500 nm) [%]	Growth Inhibition in HeLa Cells ([Compound] 5000 nm) [%]	Growth Inhibition in HeLa Cells ([Compound] 10000 nm) [%]
NC(=S)N/N=C\c1ccc(-c2ccccc2)cc1 [compound 1, 1,1′-biphenyl-4-carbaldehyde thiosemicarbazone]	1000	−3.58	−4.74	−2.50	5.29	10.32	12.76	19.73	51.68	48.18	40.98
NC(=S)N/N=C/c1ccc(C2CCCCC2)cc1 [compound 3, 4-cyclohexylbenzaldehyde thiosemicarbazone]	2800	8.97	5.97	8.16	6.91	8.88	12.32	7.53	44.36	83.84	95.02
